Measured values from patent publication US10344019B2 (priority 2010, dated 2019).

How the values were obtained:
Type in all cases: cell-based
[1] = test system: HCV 2a JFH-1 Rluc cells (dicistronic genotype 2a JFH-1 replicon, RLuc reporter); assay: microbe, parasite or virus in culture; details: Hepatitis C virus, genotype 2a JFH-1 replicon; read-out: 2a JFH
Procedure, shortened: (§1)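 Replicons used: genotype 1b Con1, 1a H77, 2a JFH-1, and a 2a JFH-1 chimera with J6-strain NS5A (M31 present), all dicistronic.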

[2] = test system: HCV 2b Rluc cells (NS5A chimeric genotype 2a JFH-1 replicon with genotype 2b MD2b-1 NS5A gene, M31 present); assay: microbe, parasite or virus in culture; details: Hepatitis C virus, read-out: 2b
Procedure, shortened: (§2)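 Replicon cells stably carrying the listed RLuc-encoding dicistronic replicons were seeded and treated with DMSO serial dilutions of compound (10 mM stocks) diluted into culture medium. After 72 h, cells were lysed and Renilla luciferase activity measured. EC50 was derived by non-linear regression.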

[3] = test system: HCV 1b RLuc cells (dicistronic genotype 1b Con1 replicon, RLuc reporter); assay: microbe, parasite or virus in culture; details: Hepatitis C virus, read-out: 1b (nM)
Procedure, shortened: as §1

[4] = test system: HCV 1a RLuc cells (dicistronic genotype 1a H77 replicon, RLuc reporter); assay: microbe, parasite or virus in culture; details: Hepatitis C virus, genotype 1a replicon; read-out: 1a
Procedure, shortened: as §1

[5] = test system: HCV 3a RLuc cells (NS5A chimeric genotype 1b Con1 replicon with consensus genotype 3a NS5A gene); assay: microbe, parasite or virus in culture; details: Hepatitis C virus, read-out: 3a, genotype 3a replicon
Procedure, shortened: as §2

[6] = test system: HCV 4a Rluc cells (NS5A chimeric genotype 1b Con1 replicon with genotype 4a NS5A gene); assay: microbe, parasite or virus in culture; details: Hepatitis C virus, read-out: 4a
Procedure, shortened: as §2

[7] = test system: HCV 2a Rluc cells (NS5A chimeric genotype 2a JFH-1 replicon with genotype 2a J6 strain NS5A gene, M31 present); assay: HCV replicon reporter assay, genotype 2a J6 (M31 present); details: Hepatitis C virus, read-out: 2a J6
Procedure, shortened: as §1

| SMILES | EC50 [1] | EC50 [2] | EC50 [3] | EC50 [4] | EC50 [5] | EC50 [6] | EC50 [7] |
| --- | --- | --- | --- | --- | --- | --- | --- |
| COC[C@H]1C[C@@H](c2ncc(-c3ccc(-c4ccc5c(ccc6nc([C@@H]7C[C@H](COC)CN7C(=O)[C@@H](NC(=O)OC)C(C)C)[nH]c65)c4)cc3)[nH]2)N(C(=O)[C@@H](NC(=O)OC)C(C)C)C1 [Example 440] | 0.001 to 0.999 nM | 1 to 44 nM | 0.048 nM | 0.001 to 0.999 nM | 1 to 4.99 nM | 0.001 to 0.99 nM | 0.001 to 0.999 nM |
| COC[C@H]1C[C@@H](c2ncc(-c3ccc(-c4ccc5c(ccc6nc([C@@H]7CCCN7C(=O)[C@@H](NC(=O)OC)C(C)C)[nH]c65)c4)cc3)[nH]2)N(C(=O)[C@@H](NC(=O)OC)C(C)C)C1 [Example 441] | 0.001 to 0.999 nM | > 44 nM | 0.03 nM | 0.001 to 0.999 nM | 0.001 to 0.99 nM | 0.001 to 0.99 nM | 1 to 44 nM |
| COC[C@H]1C[C@@H](c2ncc(-c3ccc(-c4ccc5c(ccc6nc([C@@H]7CCCN7C(=O)[C@H](NC(=O)OC)c7ccccc7)[nH]c65)c4)cc3)[nH]2)N(C(=O)[C@@H](NC(=O)OC)C(C)C)C1 [Example 442] | 0.001 to 0.999 nM | 0.001 to 0.999 nM | 0.029 nM | 0.001 to 0.999 nM | 0.001 to 0.99 nM | 0.001 to 0.99 nM | 0.001 to 0.999 nM |
| O=C(N[C@@H](C(=O)N1CCC[C@H]1c1ncc(-c2cc3c4c(c2)OCc2cc(-c5cnc([C@@H]6CCCN6C(=O)[C@H](NC(=O)C6CC6)c6ccccc6)[nH]5)cc(c2-4)OC3)[nH]1)c1ccccc1)C1CC1 [Example 443] | 0.001 to 0.999 nM | 0.001 to 0.999 nM | 0.167 nM | 0.001 to 0.999 nM | 0.001 to 0.99 nM | 0.001 to 0.99 nM | 0.001 to 0.999 nM |
| COC1CN(C(C(=O)N2CCC[C@H]2c2ncc(-c3cc4c5c(c3)OCc3cc(-c6cnc([C@@H]7CCCN7C(=O)C(c7ccccc7)N7CC(OC)C7)[nH]6)cc(c3-5)OC4)[nH]2)c2ccccc2)C1 (stereo partly drawn) [Example 444] | 0.001 to 0.999 nM | 1 to 44 nM | 1.76 nM | 1 to 44 nM | 0.001 to 0.99 nM | 1 to 4.99 nM | 1 to 44 nM |
| O=C(C(c1ccccc1)N1CCCOCC1)N1CCC[C@H]1c1ncc(-c2cc3c4c(c2)OCc2cc(-c5cnc([C@@H]6CCCN6C(=O)C(c6ccccc6)N6CCCOCC6)[nH]5)cc(c2-4)OC3)[nH]1 (stereo partly drawn) [Example 445] | 0.001 to 0.999 nM | 1 to 44 nM | 0.336 nM | 1 to 44 nM | 0.001 to 0.99 nM | 0.001 to 0.99 nM | 1 to 44 nM |
| CNC(=O)N[C@@H](C(=O)N1CCC[C@H]1c1ncc(-c2cc3c4c(c2)OCc2cc(-c5cnc([C@@H]6CCCN6C(=O)[C@H](NC(=O)NC)c6ccccc6)[nH]5)cc(c2-4)OC3)[nH]1)c1ccccc1 [Example 447] | 0.001 to 0.999 nM | 0.001 to 0.999 nM | 2.05 nM | 1 to 44 nM | 0.001 to 0.99 nM | 0.001 to 0.99 nM | 0.001 to 0.999 nM |
| COCCOC(=O)N[C@@H](C(=O)N1CCC[C@H]1c1ncc(-c2cc3c4c(c2)OCc2cc(-c5cnc([C@@H]6CCCN6C(=O)[C@H](NC(=O)OCCOC)c6ccccc6)[nH]5)cc(c2-4)OC3)[nH]1)c1ccccc1 [Example 448] | 0.001 to 0.999 nM | 0.001 to 0.999 nM | 0.459 nM | 0.001 to 0.999 nM | 0.001 to 0.99 nM | 0.001 to 0.99 nM | 1 to 44 nM |
| O=C(N[C@@H](C(=O)N1CCC[C@H]1c1ncc(-c2cc3c4c(c2)OCc2cc(-c5cnc([C@@H]6CCCN6C(=O)[C@H](NC(=O)C6CCC6)c6ccccc6)[nH]5)cc(c2-4)OC3)[nH]1)c1ccccc1)C1CCC1 [Example 449] | 0.001 to 0.999 nM | 0.001 to 0.999 nM | 0.139 nM | 0.001 to 0.999 nM | 0.001 to 0.99 nM | 0.001 to 0.99 nM | 0.001 to 0.999 nM |
| CCC(=O)N[C@@H](C(=O)N1CCC[C@H]1c1ncc(-c2cc3c4c(c2)OCc2cc(-c5cnc([C@@H]6CCCN6C(=O)[C@H](NC(=O)CC)c6ccccc6)[nH]5)cc(c2-4)OC3)[nH]1)c1ccccc1 [Example 450] | 0.001 to 0.999 nM | 0.001 to 0.999 nM | 0.427 nM | 0.001 to 0.999 nM | 0.001 to 0.99 nM | 0.001 to 0.99 nM | 0.001 to 0.999 nM |
| COC[C@H]1C[C@@H](c2nc3ccc4cc(-c5ccc6c(ccc7nc([C@@H]8[C@@H]9CC[C@@H](C9)N8C(=O)[C@@H](NC(=O)OC)C(C)C)[nH]c76)c5)ccc4c3[nH]2)N(C(=O)[C@H](NC(=O)OC)c2ccccc2)C1 [Example 451] | 0.001 to 0.999 nM | 0.001 to 0.999 nM | 0.07 nM | 0.001 to 0.999 nM | 0.001 to 0.99 nM | 0.001 to 0.99 nM | 0.001 to 0.999 nM |
| COC[C@H]1C[C@@H](c2nc3ccc4cc(-c5ccc6c(ccc7nc([C@@H]8[C@@H]9CC[C@@H](C9)N8C(=O)[C@H](NC(=O)OC)c8ccccc8)[nH]c76)c5)ccc4c3[nH]2)N(C(=O)[C@@H](NC(=O)OC)C(C)C)C1 [Example 452] | 0.001 to 0.999 nM | 1 to 44 nM | 0.047 nM | 0.001 to 0.999 nM | 0.001 to 0.99 nM | 0.001 to 0.99 nM | 0.001 to 0.999 nM |
| COC(=O)N[C@H](C(=O)N1CCC[C@H]1c1nc2ccc3cc(-c4ccc5c(ccc6nc([C@@H]7[C@H]8CC[C@H](C8)N7C(=O)[C@H](NC(=O)C7CC7)c7ccccc7)[nH]c65)c4)ccc3c2[nH]1)C(C)C [Example 455] | 0.001 to 0.999 nM | 0.001 to 0.999 nM | 0.029 nM | 0.001 to 0.999 nM | 0.001 to 0.99 nM | 0.001 to 0.99 nM | 0.001 to 0.999 nM |
| COC[C@H]1C[C@@H](c2ncc(-c3ccc(-c4ccc5c(ccc6nc([C@@H]7CCCN7C(=O)[C@@H](NC(=O)OC)C(C)C)[nH]c65)c4)cc3)[nH]2)N(C(=O)[C@H](NC(=O)C2CC2)c2ccccc2)C1 [Example 456] | 0.001 to 0.999 nM | 0.001 to 0.999 nM | 0.04 nM | 0.001 to 0.999 nM | 0.001 to 0.99 nM | 0.001 to 0.99 nM | 0.001 to 0.999 nM |
| COC(=O)N[C@H](C(=O)N1CCC[C@H]1c1nc2ccc3c(F)c(-c4ccc5c(ccc6nc([C@@H]7CCCN7C(=O)[C@@H](NC(=O)OC)C(C)C)[nH]c65)c4F)ccc3c2[nH]1)C(C)C [Example 457] | 0.001 to 0.999 nM | > 44 nM | 0.009 nM | 0.001 to 0.999 nM | 0.001 to 0.99 nM | 0.001 to 0.99 nM | > 44 nM |
| COC[C@H]1C[C@@H](c2ncc(-c3ccc(-c4ccc5c(c4)OCc4nc([C@@H]6CCCN6C(=O)[C@@H](NC(=O)OC)C(C)C)[nH]c4-5)cc3)[nH]2)N(C(=O)[C@@H](NC(=O)OC)C(C)C)C1 [Example 458] | 0.001 to 0.999 nM | > 44 nM | 0.085 nM | 0.001 to 0.999 nM | 1 to 4.99 nM | 0.001 to 0.99 nM | > 44 nM |
| COC(=O)N[C@H](C(=O)N1[C@@H](C)CC[C@H]1c1ncc(-c2cc3c4c(c2)OCc2cc(-c5cnc([C@@H]6CC[C@H](C)N6C(=O)[C@@H](NC(=O)OC)C(C)C)[nH]5)cc(c2-4)OC3)[nH]1)C(C)C [Example 460] | 0.001 to 0.999 nM | 0.001 to 0.999 nM | 0.018 nM | 0.001 to 0.999 nM | 0.001 to 0.99 nM | 0.001 to 0.99 nM | 1 to 44 nM |
| COC(=O)N[C@@H](C(=O)N1[C@@H](C)CC[C@H]1c1ncc(-c2cc3c4c(c2)OCc2cc(-c5cnc([C@@H]6CC[C@H](C)N6C(=O)[C@H](NC(=O)OC)c6ccccc6)[nH]5)cc(c2-4)OC3)[nH]1)c1ccccc1 [Example 461] | 0.001 to 0.999 nM | 0.001 to 0.999 nM | 0.02 nM | 0.001 to 0.999 nM | 0.001 to 0.99 nM | 0.001 to 0.99 nM | 1 to 44 nM |
| CN(C)CC(=O)N[C@@H](C(=O)N1CCC[C@H]1c1ncc(-c2cc3c4c(c2)OCc2cc(-c5cnc([C@@H]6CCCN6C(=O)[C@H](NC(=O)CN(C)C)c6ccccc6)[nH]5)cc(c2-4)OC3)[nH]1)c1ccccc1 [Example 462] | 0.001 to 0.999 nM | 1 to 44 nM | 8.76 nM | 1 to 44 nM | 0.001 to 0.99 nM | 1 to 4.99 nM | 1 to 44 nM |
| O=C(CC1CC1)N[C@@H](C(=O)N1CCC[C@H]1c1ncc(-c2cc3c4c(c2)OCc2cc(-c5cnc([C@@H]6CCCN6C(=O)[C@H](NC(=O)CC6CC6)c6ccccc6)[nH]5)cc(c2-4)OC3)[nH]1)c1ccccc1 [Example 465] | 0.001 to 0.999 nM | 0.001 to 0.999 nM | 0.176 nM | 0.001 to 0.999 nM | 0.001 to 0.99 nM | 0.001 to 0.99 nM | 0.001 to 0.999 nM |
| CC(C)(C)C(=O)N[C@@H](C(=O)N1CCC[C@H]1c1ncc(-c2cc3c4c(c2)OCc2cc(-c5cnc([C@@H]6CCCN6C(=O)[C@H](NC(=O)C(C)(C)C)c6ccccc6)[nH]5)cc(c2-4)OC3)[nH]1)c1ccccc1 [Example 466] | 0.001 to 0.999 nM | 1 to 44 nM | 0.042 nM | 0.001 to 0.999 nM | 0.001 to 0.99 nM | 0.001 to 0.99 nM | 1 to 44 nM |
